Reference: patent US20080235828A1 (University of Manitoba, priority 2004, published 2008)
Entries after “also recorded” stand apart in the source; their conditions may differ.

How the values were obtained:
em promoter = em promoter driven GUS expression in bombarded barley aleurone layers; assay type: cell-based; conditions: in the presence of the added substance
From the text: The studies examined the effector and reporter constructs, at a 1:1 ratio, introduced to barley aleurone layers by gold particle bombardment. The bombardment consisted of two trials: the first trial was a bombardment of em promoter only; the second trial was a bombardment of em promoters treated with ABAP1.

α-amylase activity = α-amylase activity in bombarded barley aleurones; assay type: cell-based; conditions: em and ABAP1 bombarded aleurones
Procedure: A similar experiment was conducted with α-amylase activity to confirm if ABAP1 is involved in another signal transduction pathway. α-amylase activity was measured after ABA, PBI51 and GA were added to the em and ADAPT bombarded barley aleurones.

ABAP1 = ABAP1 (Hordeum vulgare, UniProt Q9LLX3); test: ABA binding assay with purified recombinant ABAP1; set-up: species or system barley; conditions: analogs/precursors added at the same time as 3H+-ABA at different concentrations (20-5000)
Chain of ABAP1 (Q9LLX3 entry or part of it): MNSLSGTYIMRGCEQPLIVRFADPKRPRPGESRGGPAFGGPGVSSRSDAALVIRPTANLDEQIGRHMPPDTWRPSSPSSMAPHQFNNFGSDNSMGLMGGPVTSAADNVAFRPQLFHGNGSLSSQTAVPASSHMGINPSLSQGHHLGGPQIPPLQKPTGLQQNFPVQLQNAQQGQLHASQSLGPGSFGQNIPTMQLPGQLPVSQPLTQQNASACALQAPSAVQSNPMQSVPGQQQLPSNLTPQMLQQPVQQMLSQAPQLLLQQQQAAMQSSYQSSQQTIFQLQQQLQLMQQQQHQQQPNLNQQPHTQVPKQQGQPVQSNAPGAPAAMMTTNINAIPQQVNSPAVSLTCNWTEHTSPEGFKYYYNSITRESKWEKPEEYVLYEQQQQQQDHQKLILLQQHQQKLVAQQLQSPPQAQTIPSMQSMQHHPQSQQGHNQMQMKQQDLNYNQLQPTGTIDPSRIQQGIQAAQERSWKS
Procedure: Other additions or changes to the incubation system are discussed in the figure legends. All binding assays were carried out at a final volume of 150 μL at 4° C. for 1 hour. The mixture was then rapidly filtered through a nitrocellulose membrane, washed with 5 mL, of cold 0.5× binding buffer by rapid filtration, dried in air and counted in a scintillation counter (Wallac 1414 WinSpectral v1.40). […] The DCC binding mixture was maintained for 15 minutes on ice before centrifugation to precipitate DCC. The resulted supernatant was then counted in a scintillation counter to determine the binding activity. […] Heat denatured ABAP1 protein was used to determine the protein nature of the ABAP1 and BSA was used as a control. All binding studies were carried out using three different protein purifications with triplicate assays for each purification. […] Binding was represented as the number of moles of ^3H^+-ABA per mole of ABAP1 protein.

FCA protein = target: T1, FCA protein (Arabidopsis thaliana, UniProt O04425); test: ABA binding assay with purified recombinant FCA; set-up: Kd; other: analog added in higher concentrations than 3H+-ABA (20-5000 nM); other: Scatchard analysis, r^2=0.88; other: in presence of 5 μM unlabelled (+)-ABA; pH range of maximum; fused on or other part: GST fused on for purification; conditions: analog added in higher concentrations than 3H+-ABA (20-5000 nM)
T1 sequence (O04425 1-747 isoform O04425-1): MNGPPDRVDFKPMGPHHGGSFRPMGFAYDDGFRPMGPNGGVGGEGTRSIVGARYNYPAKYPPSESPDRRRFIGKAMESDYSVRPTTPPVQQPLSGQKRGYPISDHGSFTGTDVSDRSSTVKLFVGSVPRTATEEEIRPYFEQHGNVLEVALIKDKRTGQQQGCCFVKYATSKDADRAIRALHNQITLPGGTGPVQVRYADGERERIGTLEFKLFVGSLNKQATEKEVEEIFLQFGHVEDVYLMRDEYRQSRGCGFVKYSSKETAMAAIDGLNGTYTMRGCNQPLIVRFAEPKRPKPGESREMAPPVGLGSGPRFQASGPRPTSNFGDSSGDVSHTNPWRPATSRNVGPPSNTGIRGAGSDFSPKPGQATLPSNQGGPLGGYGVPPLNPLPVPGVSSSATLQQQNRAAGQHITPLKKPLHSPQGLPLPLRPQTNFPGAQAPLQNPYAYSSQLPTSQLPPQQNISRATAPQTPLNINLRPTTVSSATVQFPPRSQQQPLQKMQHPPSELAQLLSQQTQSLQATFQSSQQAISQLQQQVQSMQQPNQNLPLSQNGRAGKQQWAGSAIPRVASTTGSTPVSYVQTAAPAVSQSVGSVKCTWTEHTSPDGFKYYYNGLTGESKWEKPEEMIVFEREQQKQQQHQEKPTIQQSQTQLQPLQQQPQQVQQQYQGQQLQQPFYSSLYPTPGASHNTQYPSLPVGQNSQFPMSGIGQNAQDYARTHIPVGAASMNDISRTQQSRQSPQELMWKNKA
Procedure: […] The mixture was then rapidly filtered through a nitrocellulose membrane, washed with 0.5× binding buffer, air dried and counted in a scintillation counter (Wallac 1414 WinSpectral v1.40). Heat denatured FCA protein was used to used determine the protein nature of the FCA and BSA was used as a control. All binding studies were carried out using three different GST affinity chromatography protein purifications with triplicate assays for each purification. […] Specific binding was calculated by taking the difference for assays with only ^3H^+-ABA (total binding) and assays that also contained 5 μM (±)-ABA added at the same time as ^3H^+-ABA (non-specific binding). Binding was represented as the number of moles of ^3H^+-ABA per mole of FCA protein.

FCA/FY interaction = test: GST pull-down of FCA/FY interaction in the presence of ABA; assay type: binding, Arabidopsis; conditions: FCA pre-bound with ABA for 30 min
Procedure: All in vitro translation and GST pull-down assays were carried out as described by supplier's protocols (Promega, Madison, Wis.) with modifications^S and as follows. For GST in vitro pull-down assays, 15 μL GST affinity resin was incubated with 250 μL FCA clear lysate, pelleted and the complex blocked and washed with IP buffer as described^S. For the determination of the amount of FCA bound to GST resin, the pellet was resuspended with 200 μL of 15 mM GSH to elute FCA and the supernatant was recovered by centrifugation. FY protein to be tested for interaction with the GST-FCA fusion protein was synthesized from a plasmid template and labeled with [^35S]-methionine using the T7 TNT coupled Transcription/Translation System (Promega). Twenty μL of FY labeled protein and 180 μL of interaction buffer (12.5 mM Tris-HCl, pH 7.3 containing 5 mM KCl, 1 mM MgCl2, and 100 mM NaCl) were used to resuspend the GST:FCA after the final wash. The protein binding/interaction reaction was carried out for 90 minutes at 4° C. with continuous gentle mixing. The newly formed complex was then washed three times with 500 μL of IP wash buffer. After the final wash, the complex was resuspended, first with 10 μL of 1 5 mM GSH to facilitate the dissociation of interacted proteins from GST resin and then 10 μL of 2×SDS-PAGE sample buffer was added to the mixture and boiled for 5 minutes for complete elution of the proteins from the agarose beads. The beads were pelleted by centrifugation and supernatant was loaded on a 12% SDS-PAGE gel. The gel was dried and exposed to Kodak X-ray film for 18 hours at −70° C. and film was developed for the detection of labelled proteins.
FCA was bound with […] for 30 minutes at which time the FCA/FY translated product was added to the incubation mixture. The interaction between FCA/FY was carried out in the presence of either (−)- or (+)-ABA in binding buffer as described above. Released proteins were separated on SDS-PAGE and labelled proteins were detected as described above. FCA-WW-FY was used as a control.

[1] = ABA binding of ABAP1 trypsin fragments; set-up: species or system barley; conditions: for ABA binding molar ratio / affinity: trypsin fragments compared with full-length ABAP1
From the text: It is to be noted that the nucleotide fragment sequence SEQ ID NO: 12 corresponds to nucleotides 350 through 951 of the nucleotide sequence listing set forth in SEQ ID NO: 9, and that the amino acid sequence SEQ ID NO: 11 encoded by the nucleotide fragment sequence SEQ ID NO: 12 corresponds to amino acids 112 though 309 of the ABAP1 protein (SEQ. ID NO: 10). Mutation analysis can be used to determine the specific residues involved in […] binding. Those skilled in these arts will understand that the ABA-binding capacity within a recipient plant tissue or seed can be modulated by constructing a nucleotide molecule by first fusing the T-20 coding sequence (SEQ ID NO: 12) with a suitable regulatory nucleotide sequence selected for over-expression or for under-expression of the T-20 coding sequence, then stably introducing the T-20 nucleotide molecule into the genome of a recipient cell from a seed-producing plant, culturing the recipient cell into a functional whole plant and then further propagating the plant to produce mature recipient seeds. A suitable forward […] for the T-20 coding sequence is set forth in the sequence listing identified as SEQ ID NO: 15. A suitable reverse primer for the T-20 coding sequence is set forth in the sequence listing identified as SEQ ID NO: 16.

Molecule: C=C1C[C@]23C[C@@]1(O)CC[C@H]2[C@@]12C=C[C@H](O)[C@@](C)(C(=O)O1)[C@H]2[C@@H]3C(=O)O [GA, gibberellic acid]
- activation of the em promoter by ABAP1 (em promoter): reduced
- α-amylase activity (α-amylase activity): did not affect any reduction

Molecule: CC1=CC(=O)CC(C)(C)[C@@]1(O)/C=C/C(C)=C\C(=O)O[C@@H]1O[C@H](CO)[C@@H](O)[C@H](O)[C@H]1O [ABA-GE, (+) abscisic acid-glucose ester]
- displacement of 3H+-ABA bound to ABAP1 (competition) (ABAP1): incapability

Molecule: CC(C=CC1(O)C(C)=CC(=O)CC1(C)C)=CC(=O)O (stereo not drawn) [trans-ABA]
- displacement of 3H+-ABA bound to ABAP1 (competition) (ABAP1): incapability; also recorded: neither (−)-ABA nor trans-ABA compete
- displacement of 3H+-ABA binding to FCA (FCA protein): Virtually no or very little displacement

Molecule: CC1=CC(=O)CC(C)(C)[C@@]1(O)/C=C/C(C)=C\CO [(+) ABA-alcohol]
- displacement of 3H+-ABA bound to ABAP1 (competition) (ABAP1): able to displace
- displacement of 3H+-ABA bound to ABAP1 (competition) (ABAP1; listed as ABA alcohol): did competitively inhibit binding of ABA to ABAP1 to some extent

Molecule: CC(=C/C(=O)O)/C=C/[C@]1(O)[C@@]2(C)CO[C@]1(C)C[C@@H](O)C2 [DPA, dihydrophaseic acid]
- displacement of 3H+-ABA bound to ABAP1 (competition) (ABAP1): incapability

Molecule: C/C(C#C[C@]1(O)[C@H](C)CC(=O)CC1(C)C)=C/CO [PBI51]
- activation of the em promoter by ABAP1 (em promoter): reduced
- α-amylase activity (α-amylase activity): decreased

Molecule: CC(=C/C(=O)O)/C=C/[C@]1(O)[C@@]2(C)CO[C@]1(C)CC(=O)C2 [PA, phaseic acid]
- displacement of 3H+-ABA bound to ABAP1 (competition) (ABAP1): incapability

Molecule: (−)-ABA
- displacement of 3H+-ABA bound to ABAP1 (competition) (ABAP1): neither (−)-ABA nor trans-ABA compete
- displacement of 3H+-ABA bound to ABAP1 (competition) (ABAP1; listed as (−) ABA): incapability
- inhibition of FCA/FY interaction (FCA/FY interaction): did not significantly inhibit
- displacement of 3H+-ABA binding to FCA (FCA protein): Virtually no or very little displacement

Molecule: CC1=CC(=O)CC(C)(C)[C@@]1(O)/C=C/C(C)=C\C=O [(+) ABA-aldehyde]
- displacement of 3H+-ABA bound to ABAP1 (competition) (ABAP1): able to displace
- displacement of 3H+-ABA bound to ABAP1 (competition) (ABAP1; listed as ABA aldehyde): did competitively inhibit binding of ABA to ABAP1 to some extent

B1: 20 kDa fragment: trypsin fragment of ABAP1 with HR1 and HR2 regions, SEQ ID NO: 11 (protein)
chain: PQLFHGNGSLSSQTAVPASSHMGINPSLSQGHHLGGPQIPPLQKPTGLQQNFPVQLQNAQQGQLHASQSLGPGSFGQNIPTMQLPGQLPVSQPLTQQNASACALQAPSAVQSNPMQSVPGQQQLPSNLTPQMLQQPVQQMLSQAPQLLLQQQQAAMQSSYQSSQQTIFQLQQQLQLMQQQQHQQQPNLNQQPHTQVPK
modifications: Hordeum, vulgare subsp. vulgare
- ABA binding molar ratio / affinity [1]: about the same molar ratio

B2: 10 kDa fragment: trypsin fragment of ABAP1 containing HR2 only, SEQ ID NO: 13 (protein)
chain: SAVQSNPMQSVPGQQQLPSNLTPQMLQQPVQQMLSQAPQLLLQQQQAAMQSSYQSSQQTIFQLQQQLQLMQQQQHQQQPNLNQQPHTQVPK
modifications: Hordeum, vulgare subsp. vulgare
- ABA-binding affinity relative to 20 kDa fragment and full-length protein [1]: less than 50%
- ABA binding molar ratio / affinity [1]: slight binding affinity
